In US20250228855A1, “PYRAZINAMIDE COMPOUNDS” (The General Hospital Corporation, priority 2022, published 2025):
Where a name gives a salt, the structure may show the parent alone. Read-outs that look alike come from different tables or passages of the source. Marks after values point to notes of the source that are not given here.

Tests used:
P. falciparum Dd2-2D4 = experiment: P. falciparum asexual blood stage growth assay, wild-type Dd2-2D4
Method: (§1) Asexual blood stage (ABS) P. falciparum parasites were treated with test compounds at varying concentrations for 72 h, followed by quantification of parasite growth by SYBR Green staining.
(§2) P. falciparum Asexual Blood Stage Growth Assay: This assay was performed as previously described.

PfcProRS = PfcProRS (Plasmodium falciparum, UniProt Q8I5R7); experiment: TR-FRET ligand displacement assay with tracer MAT379, PfcProRS; format: binding
[1] = tested on: halofuginone-induced (HFG-induced) P. falciparum; experiment: P. falciparum asexual blood stage growth assay, halofuginone-induced parasites; details: Plasmodium falciparum
Method: as §1, §2

HsProRS = biological target: T1, HsProRS (Homo sapiens, UniProt P07814); experiment: TR-FRET ligand displacement assay with tracer MAT379, HsProRS; format: binding
T1 sequence (P07814 1007-1512 limits assumed): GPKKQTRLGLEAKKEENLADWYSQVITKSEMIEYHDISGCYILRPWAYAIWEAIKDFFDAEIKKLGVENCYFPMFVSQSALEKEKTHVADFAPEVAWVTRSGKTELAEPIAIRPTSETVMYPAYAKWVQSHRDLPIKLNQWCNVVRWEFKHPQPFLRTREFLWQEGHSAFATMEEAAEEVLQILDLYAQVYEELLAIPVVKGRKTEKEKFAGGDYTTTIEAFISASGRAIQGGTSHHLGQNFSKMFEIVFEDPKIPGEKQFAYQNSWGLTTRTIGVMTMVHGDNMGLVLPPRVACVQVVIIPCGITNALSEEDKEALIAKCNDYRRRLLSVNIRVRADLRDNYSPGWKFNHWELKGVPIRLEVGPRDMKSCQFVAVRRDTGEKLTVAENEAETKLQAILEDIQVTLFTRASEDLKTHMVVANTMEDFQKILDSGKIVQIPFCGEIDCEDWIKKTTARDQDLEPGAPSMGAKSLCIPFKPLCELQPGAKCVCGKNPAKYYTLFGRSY

[2] = PfcProRS (KD [nM]) +proline, 100 μM Pro
[3] = no proline, no ATP, read-out: PfcProRS (KD [nM]) −
[4] = DD2, 72 h, read-out: Dd2 (EC50 [nM]) Halofuginone-induced
[5] = no proline, no ATP, read-out: HsProRS (KD [nM]) −
[6] = read-out: HsProRS (KD [nM]) +proline, 100 μM Pro
[7] = Plasmodium falciparum, DD2, 72 h, read-out: Dd2 (EC50 [nM]) wt
[8] = Plasmodium falciparum, DD2, read-out: EC50 against Dd2-2D4 wildtype parasites
[9] = read-out: EC50 in halofuginone-induced parasites
[10] = absence of proline, read-out: KD for PfcProRS

Sequence of PfcProRS (Q8I5R7 whole entry): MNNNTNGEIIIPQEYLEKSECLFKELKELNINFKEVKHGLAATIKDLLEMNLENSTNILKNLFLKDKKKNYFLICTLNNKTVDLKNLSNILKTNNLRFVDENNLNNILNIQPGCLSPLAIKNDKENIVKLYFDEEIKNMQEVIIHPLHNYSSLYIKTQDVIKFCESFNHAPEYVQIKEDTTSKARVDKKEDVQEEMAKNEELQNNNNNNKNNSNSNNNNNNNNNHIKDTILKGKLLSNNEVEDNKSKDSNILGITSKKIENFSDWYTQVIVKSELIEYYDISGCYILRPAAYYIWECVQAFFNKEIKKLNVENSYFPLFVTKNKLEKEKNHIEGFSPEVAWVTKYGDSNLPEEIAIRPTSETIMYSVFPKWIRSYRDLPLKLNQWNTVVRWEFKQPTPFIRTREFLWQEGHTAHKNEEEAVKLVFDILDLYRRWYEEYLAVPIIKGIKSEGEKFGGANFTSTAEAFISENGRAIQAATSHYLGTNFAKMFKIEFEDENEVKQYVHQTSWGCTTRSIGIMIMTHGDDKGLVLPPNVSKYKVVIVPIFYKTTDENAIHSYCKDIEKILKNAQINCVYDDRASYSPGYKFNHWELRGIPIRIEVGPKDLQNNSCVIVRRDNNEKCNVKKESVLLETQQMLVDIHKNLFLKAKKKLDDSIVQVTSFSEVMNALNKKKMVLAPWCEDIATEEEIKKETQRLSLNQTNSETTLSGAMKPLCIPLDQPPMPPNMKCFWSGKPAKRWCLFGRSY

Compound	Kd (PfcProRS; [2]) [nM]	Kd (PfcProRS; [3]) [nM]	EC50 [1, 4] [nM]	Kd (HsProRS; [5]) [nM]	Kd (HsProRS; [6]) [nM]	EC50 (P. falciparum Dd2-2D4; [7]) [nM]	further results
CC(C)(C)OC(=O)N1CCC[C@H](OC(=O)NS(=O)(=O)N2CCN(C(=O)Nc3nccnc3C(=O)NC3Cc4ccccc4C3)CC2)[C@H]1CC(=O)Cn1cnc2cc(Br)c(Cl)cc2c1=O (relative stereo) [Compound 37, tert-butyl trans-2-(3-(7-bromo-6-chloro-4-oxoquinazolin-3(4H)-yl)-2-oxopropyl)-3-((((4-((3-((2,3-dihydro-1H-inden-2-yl)carbamoyl)pyrazin-2-yl)carbamoyl)piperazin-1-yl)sulfonyl)carbamoyl)oxy)piperidine-1-carboxylate]	175	246	7150	–	–	–	percent growth at 10 μM (Dd2 wt) (P. falciparum Dd2-2D4; 10 μM, compound had <50% growth inhibition): 59% †
O=C(NC1Cc2ccccc2C1)c1nccnc1NC(=O)C1CCCCC1 [Compound 2, 3-(cyclohexanecarboxamido)-N-(2,3-dihydro-1H-inden-2-yl)pyrazine-2-carboxamide, reference compound]	7.17	437	1250	371	2.16	595	Kd (HsProRS; read-out: HsProRS (KD [nM]) +ATP, +ATP): 954 nM; EC50 (P. falciparum Dd2-2D4; [8]): 595 nM; Kd (PfcProRS; PfcProRS (KD [nM]) +ATP, 500 μM ATP): 291 nM; EC50 [1, 9]: 1250 nM
CC1(C(=O)Nc2nccnc2C(=O)NC2Cc3ccccc3C2)CCCCC1 [Compound 4, N-(2,3-dihydro-1H-inden-2-yl)-3-(1-methylcyclohexane-1-carboxamido)pyrazine-2-carboxamide]	3.42	275	540	221	2.55	180	EC50 (P. falciparum Dd2-2D4; [8]): 180 nM; EC50 [1, 9]: 540 nM
CC(C)(C)OC(=O)N[C@H]1CC[C@@H](C(=O)Nc2nccnc2C(=O)NC2Cc3ccccc3C2)CC1 [Compound 6, tert-butyl ((1s,4s)-4-((3-((2,3-dihydro-1H-inden-2-yl)carbamoyl)pyrazin-2-yl)carbamoyl)cyclohexyl)carbamate]	26.3	31.5	7930	56.8	82.7	508	–
CC(C)(C)OC(=O)NCC1CCN(C(=O)Nc2nccnc2C(=O)NC2Cc3ccccc3C2)CC1 [Compound 9, tert-butyl ((1-((3-((2,3-dihydro-1H-inden-2-yl)carbamoyl)pyrazin-2-yl)carbamoyl)piperidin-4-yl)methyl)carbamate]	353	382	7530	2510	–	6570	Kd (HsProRS): > 5090 nM
O=C(NC1Cc2ccccc2C1)c1nccnc1NC(=O)N1CCC(CCO)CC1 [Compound 12, N-(2,3-dihydro-1H-inden-2-yl)-3-(4-(2-hydroxyethyl)piperidine-1-carboxamido)pyrazine-2-carboxamide]	339	515	6350	687	150	153	–
O=C(NC1Cc2ccccc2C1)c1nccnc1NC(=O)C1(O)CCCCC1 [Compound 15, N-(2,3-dihydro-1H-inden-2-yl)-3-(1-hydroxycyclohexane-1-carboxamido)pyrazine-2-carboxamide]	–	–	3510	2700	21.8	1500	–
C[C@@H]1CCC[C@H](C)N1C(=O)Nc1nccnc1C(=O)NC1Cc2ccccc2C1 [Compound 19, N-(2,3-dihydro-1H-inden-2-yl)-3-(cis-2,6-dimethylpiperidine-1-carboxamido)pyrazine-2-carboxamide]	1180	> 2860	8590	> 8720	1320	> 10000	–
O=C(NC1Cc2ccccc2C1)c1nccnc1NC(=O)C1CCC1 [Compound 20, 3-(cyclobutanecarboxamido)-N-(2,3-dihydro-1H-inden-2-yl)pyrazine-2-carboxamide]	100	1260	6010	738	13.2	3740	–
CC(C)(C)OC(=O)NCCCCCC(=O)NC1CCN(C(=O)Nc2nccnc2C(=O)NC2Cc3ccccc3C2)CC1 [Compound 41, tert-butyl (6-((1-((3-((2,3-dihydro-1H-inden-2-yl)carbamoyl)pyrazin-2-yl)carbamoyl)piperidin-4-yl)amino)-6-oxohexyl)carbamate]	182	227	6910	139	561	2110	–
NCCCCCC(=O)NC1CCN(C(=O)Nc2nccnc2C(=O)NC2Cc3ccccc3C2)CC1 [Compound 42, 3-(4-(6-aminohexanamido)piperidine-1-carboxamido)-N-(2,3-dihydro-1H-inden-2-yl)pyrazine-2-carboxamide dihydrochloride]	295	433	9080	–	780	3120	Kd (HsProRS; read-out: HsProRS (KD [nM]) −): 674 nM
Nc1nccnc1C(=O)NC1CCCCC1 [Compound 48, 3-amino-N-cyclohexylpyrazine-2-carboxamide]	> 2180	> 2860	–	> 8720	–	8740	Kd (HsProRS): > 5090 nM
O=C(NC1CCCCC1)c1nccnc1NC(=O)C1Cc2ccccc2C1 [Compound 49, N-cyclohexyl-3-(2,3-dihydro-1H-indene-2-carboxamido)pyrazine-2-carboxamide]	> 2180	> 2860	–	> 8720	–	6800	Kd (HsProRS): > 5090 nM
O=C(NC1Cc2ccccc2C1)c1nccnc1NS(=O)(=O)C1CCCCC1 [Compound 50, 3-(cyclohexanesulfonamido)-N-(2,3-dihydro-1H-inden-2-yl)pyrazine-2-carboxamide]	> 2180	> 2860	–	> 8720	–	13000	Kd (HsProRS): > 5090 nM
O=C(NS(=O)(=O)N1CCN(C(=O)Nc2nccnc2C(=O)NC2Cc3ccccc3C2)CC1)O[C@H]1CCCNC1 [MAT445, (S)-piperidin-3-yl ((4-((3-((2,3-dihydro-1H-inden-2-yl)carbamoyl)pyrazin-2-yl)carbamoyl)piperazin-1-yl)sulfonyl)carbamate]	–	–	7620	–	–	1160	EC50 (P. falciparum Dd2-2D4; [8]): 1160 nM; Kd (PfcProRS; [10]): 1110 nM; EC50 [1, 9]: > 10000 nM
O=C(NS(=O)(=O)N1CCN(C(=O)Nc2nccnc2C(=O)NC2Cc3ccccc3C2)CC1)O[C@@H]1CCCNC1 [MAT447, (R)-piperidin-3-yl ((4-((3-((2,3-dihydro-1H-inden-2-yl)carbamoyl)pyrazin-2-yl)carbamoyl)piperazin-1-yl)sulfonyl)carbamate]	–	–	6990	–	–	6250	EC50 (P. falciparum Dd2-2D4; [8]): 6250 nM; Kd (PfcProRS; [10]): 2460 nM; EC50 [1, 9]: > 10000 nM
O=C(NS(=O)(=O)NC1CCN(C(=O)Nc2nccnc2C(=O)NC2Cc3ccccc3C2)CC1)OCCn1cnc2ccccc2c1=O [MAT513, 2-(4-oxoquinazolin-3(4H)-yl)ethyl (N-(1-((3-((2,3-dihydro-1H-inden-2-yl)carbamoyl)pyrazin-2-yl)carbamoyl)piperidin-4-yl)sulfamoyl)carbamate]	–	–	–	–	–	4830	Kd (HsProRS; absence of proline, read-out: KD for HsProRS): 157 nM; IC50 (P. falciparum Dd2-2D4; Plasmodium falciparum, DD2, read-out: IC50 for Dd2-2D4): 4830 nM; Kd (PfcProRS; [10]): 20.3 nM
Nc1ncnc2c1ncn2[C@@H]1O[C@H](COS(=O)(=O)NC(=O)[C@@H]2CCCN2)[C@@H](O)[C@H]1O [ProSA (25), 5′-O—[N-(L-Prolyl)-sulfamoyl]adenosine, reference compound]	–	–	137	–	–	151	–
